Test results as given in patent US20140364552A1, “AQUEOUS RESIN COMPOSITION COMPRISING FILM-FORMING AID, AND STEEL SHEET SURFACE TREATMENT AGENT CONTAINING THE SAME” (DIC Corporation, priority 2011, published 2014).

Assays:
[1] = Evaluating film-forming property (cracks in cast coating film); type: physicochemical
Protocol: After drying for 24 hours, the film-forming property was evaluated by visual observation based on criteria below. When no crack occurred, the film-forming property was evaluated as “A”, when fine cracks slightly occurred, the film-forming property was evaluated as “B”, and when clear cracks occurred over the entire surface of the coating film, the film-forming property was evaluated as “C”.

[2] = Evaluating alkali resistance of coating film on galvanized steel sheet; type: physicochemical
Protocol: Each of the aqueous resin compositions immediately after preparation was applied on a galvanized steel sheet by using a film applicator so that an amount of application was 0.1 g/100 cm^2 and then dried at 80° C. for 30 seconds to form a test piece. Next, 0.5 mL of a 5% aqueous sodium hydroxyl solution was dropped on the test piece which was then allowed to stand for 30 minutes. After being allowed to stand, the appearance of a coating film in a portion where the liquid adhered was evaluated based on criteria below. When no change occurred in the appearance, alkali resistance was evaluated as “A”; when the coating film was discolored black or dissolved in an area of less than 10%, alkali resistance was evaluated as “B”; when the coating film was discolored black or dissolved in an area of 10% or more and less than 30%, alkali resistance was evaluated as “C”; and when the coating film was discolored black or dissolved in an area of 30% or more, alkali resistance was evaluated as “D”.

[3] = Corrosion resistance, salt spray test JIS Z2371; type: physicochemical
Protocol: Each of the aqueous resin compositions immediately after preparation was applied on a galvanized steel sheet by using a film applicator so that an amount of application was 0.1 g/100 cm^2 and then dried at 80° C. for 30 seconds to form a test piece. According to a salt spray test method described in JIS Z2371, a 5 mass % aqueous sodium chloride solution was sprayed on the test piece at an ambient temperature of 35° C., and a rate of occurrence of white rust after 240 hours was measured and evaluated based on criteria below. In addition, a tape seal was attached to a portion where the aqueous resin composition was not applied (the end surfaces and back surface). When no white rust occurred, corrosion resistance was evaluated as “A”; when white rust occurred in an area of less than 5% of the whole coating area, corrosion resistance was evaluated as “B”; when white rust occurred in an area of 5% or more and less than 20% of the whole coating area, corrosion resistance was evaluated as “C”; and when white rust occurred in an area of 20% or more of the whole coating area, corrosion resistance was evaluated as “D”.

[4] = cited from earlier work

film-forming property (in words) [1]: excellent
alkali resistance of coating film (in words) [2]: excellent
Structure (SMILES): CN1CCCC1=O [N-methyl-2-pyrrolidone]
corrosion resistance of coating film (in words) [3]: excellent
toxicity (in words) [4]: problem of toxicity
